The source of these data is patent publication US20250114345A1, “COMPOUNDS AND COMPOSITIONS AS CBP/P300 DEGRADERS AND USES THEREOF” (Oncopia Therapeutics, Inc. d/b/a/ SK Life Science Labs, priority 2023, published 2025).

Each structure is given as a SMILES string.

In general, Dmax refers to the largest share of the target that was removed. Higher therefore signals a fuller loss of target. For orientation: DC50 means the concentration at which degradation of the target reaches its halfway point. Lower therefore signals a more potent degrader.

The target of this assay is T1, p300 (Homo sapiens, UniProt Q09472).
T1 construct: host or cells: A549 P300 HiBit cells
T1 sequence (Q09472 whole entry): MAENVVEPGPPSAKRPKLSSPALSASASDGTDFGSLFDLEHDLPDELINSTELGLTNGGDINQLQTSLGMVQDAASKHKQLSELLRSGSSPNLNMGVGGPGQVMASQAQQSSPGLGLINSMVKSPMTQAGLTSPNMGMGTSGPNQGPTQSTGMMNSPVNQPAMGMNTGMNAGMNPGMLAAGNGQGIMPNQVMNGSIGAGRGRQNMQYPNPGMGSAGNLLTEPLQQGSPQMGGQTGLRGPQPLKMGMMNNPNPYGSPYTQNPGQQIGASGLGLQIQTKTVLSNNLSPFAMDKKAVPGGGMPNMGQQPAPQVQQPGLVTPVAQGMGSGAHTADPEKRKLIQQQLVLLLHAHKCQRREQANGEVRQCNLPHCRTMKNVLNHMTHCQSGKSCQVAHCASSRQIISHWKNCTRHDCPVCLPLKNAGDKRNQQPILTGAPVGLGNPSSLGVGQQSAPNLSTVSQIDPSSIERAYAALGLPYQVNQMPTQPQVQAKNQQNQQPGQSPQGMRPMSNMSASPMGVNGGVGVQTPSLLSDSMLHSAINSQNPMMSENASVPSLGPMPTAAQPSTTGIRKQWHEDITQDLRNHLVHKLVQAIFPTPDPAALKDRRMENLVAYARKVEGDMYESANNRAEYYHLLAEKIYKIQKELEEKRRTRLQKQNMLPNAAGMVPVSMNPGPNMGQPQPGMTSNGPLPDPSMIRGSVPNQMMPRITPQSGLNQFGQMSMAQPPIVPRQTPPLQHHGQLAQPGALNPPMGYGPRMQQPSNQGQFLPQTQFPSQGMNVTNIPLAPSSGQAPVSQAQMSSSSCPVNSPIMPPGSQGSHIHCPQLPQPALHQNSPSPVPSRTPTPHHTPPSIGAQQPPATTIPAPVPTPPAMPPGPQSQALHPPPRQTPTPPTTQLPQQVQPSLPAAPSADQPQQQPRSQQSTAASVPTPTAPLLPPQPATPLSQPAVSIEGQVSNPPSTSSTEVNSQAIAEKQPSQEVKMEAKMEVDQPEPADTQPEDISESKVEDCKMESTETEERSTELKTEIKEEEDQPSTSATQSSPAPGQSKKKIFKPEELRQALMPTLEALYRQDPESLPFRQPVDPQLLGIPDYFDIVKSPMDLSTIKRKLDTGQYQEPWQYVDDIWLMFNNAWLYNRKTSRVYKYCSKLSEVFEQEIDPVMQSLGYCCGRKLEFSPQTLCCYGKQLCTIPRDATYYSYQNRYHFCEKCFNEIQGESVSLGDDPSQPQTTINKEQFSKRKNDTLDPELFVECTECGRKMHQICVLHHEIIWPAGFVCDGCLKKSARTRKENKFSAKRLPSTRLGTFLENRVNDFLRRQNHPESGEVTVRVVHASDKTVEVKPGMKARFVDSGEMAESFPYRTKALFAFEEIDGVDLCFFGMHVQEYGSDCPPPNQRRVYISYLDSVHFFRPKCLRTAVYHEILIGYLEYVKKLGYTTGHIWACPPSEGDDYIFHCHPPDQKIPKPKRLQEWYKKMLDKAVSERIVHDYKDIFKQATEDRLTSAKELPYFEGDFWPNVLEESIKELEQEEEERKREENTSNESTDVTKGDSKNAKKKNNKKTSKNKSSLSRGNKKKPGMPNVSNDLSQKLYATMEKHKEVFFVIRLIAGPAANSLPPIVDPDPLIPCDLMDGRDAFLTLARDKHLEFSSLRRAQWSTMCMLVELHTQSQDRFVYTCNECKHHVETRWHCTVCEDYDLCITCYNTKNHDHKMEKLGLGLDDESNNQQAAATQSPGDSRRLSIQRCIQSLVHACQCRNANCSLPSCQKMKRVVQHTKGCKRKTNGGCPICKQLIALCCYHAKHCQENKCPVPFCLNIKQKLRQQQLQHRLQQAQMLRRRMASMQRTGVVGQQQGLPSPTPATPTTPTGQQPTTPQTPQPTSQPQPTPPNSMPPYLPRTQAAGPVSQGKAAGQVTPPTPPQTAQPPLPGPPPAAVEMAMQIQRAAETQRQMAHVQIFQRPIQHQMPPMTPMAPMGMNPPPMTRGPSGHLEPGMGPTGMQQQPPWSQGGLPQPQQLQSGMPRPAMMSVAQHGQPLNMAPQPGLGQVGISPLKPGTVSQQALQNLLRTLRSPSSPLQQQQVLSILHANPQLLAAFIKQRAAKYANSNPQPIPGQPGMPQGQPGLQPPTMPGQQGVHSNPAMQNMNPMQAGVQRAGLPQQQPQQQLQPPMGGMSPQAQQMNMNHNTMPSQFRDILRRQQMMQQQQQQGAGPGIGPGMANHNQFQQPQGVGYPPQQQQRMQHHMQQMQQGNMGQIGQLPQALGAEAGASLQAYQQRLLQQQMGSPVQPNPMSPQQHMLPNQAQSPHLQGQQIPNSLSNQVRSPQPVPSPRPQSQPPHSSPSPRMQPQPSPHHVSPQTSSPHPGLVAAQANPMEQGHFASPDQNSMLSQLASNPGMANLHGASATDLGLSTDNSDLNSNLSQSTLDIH
Put plainly: P300 degradation, HiBit technology in A549 P300 HiBit cells (2 h). The class given is cell-based. The conditions noted are these: 2 hrs post treatment; for Dmax: A549, A549 P300 HiBit cells; for DC50: A549 P300 HiBit cells. Put shortly: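 Luminescence after lytic HiBiT detection (10 min, room temperature) gave degradation potency and Dmax. Before that, knock-in A549 cells grown overnight in F-12K/10% HI-FBS were exposed to serially diluted compound at 37 °C, 5% CO2 for the assay time stated.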
On the technique in general: HiBiT is a short tag that completes a luciferase, so light tracks the accessible tagged protein.

With `CC(C)c1cc(N2CCOc3cc(-c4ccc(C(=O)NCC#Cc5ccc6occ(C7CCC(=O)NC7=O)c6c5)nc4)c(C#N)cc32)cc2c1n(C)c(=O)n2C` (centres unmarked) [Example A134, 5-(6-cyano-4-(7-iso-propyl-1,3-dimethyl-2-oxo-2,3-dihydro-1H-benzo[d]imidazol-5-yl)-3,4-dihydro-2H-benzo[b][1,4]oxazin-7-yl)-N-(3-(3-(2,6-dioxopiperidin-3-yl)benzofuran-5-yl)prop-2-yn-1-yl)picolinamide], the Dmax was greater than 80% and the DC50 fell in the range of 1 to 9.9 nM.
`Cn1c(=O)n(C)c2c(C3CCOCC3)nc(-c3cccc4cc(-c5ccc(C(=O)NCC#Cc6ccc7occ(C8CCC(=O)NC8=O)c7c6)nc5)ncc34)cc21` (centres unmarked) [Example A135, 5-(8-(1,3-dimethyl-2-oxo-4-(tetrahydro-2H-pyran-4-yl)-2,3-dihydro-1H-imidazo[4,5-c]pyridin-6-yl)isoquinolin-3-yl)-N-(3-(3-(2,6-dioxopiperidin-3-yl)benzofuran-5-yl)prop-2-yn-1-yl)picolinamide] registered a Dmax greater than 80% and a DC50 of 1 to 9.9 nM.
The molecule `CCN(c1cnc(-c2cnc(C(=O)NCC#Cc3ccc4occ(C5CCC(=O)NC5=O)c4c3)c(C)c2)c(F)c1)c1cc(C(C)C)c2c(c1)n(C)c(=O)n2C` (centres unmarked) [Example A137, N-(3-(3-(2,6-dioxo-piperidin-3-yl)benzofuran-5-yl)prop-2-yn-1-yl)-5-(ethyl(7-isopropyl-1,3-dimethyl-2-oxo-2,3-dihydro-1H-benzo[d]imidazol-5-yl)amino)-3-fluoro-5′-methyl-[2,3′-bipyridine]-6′-carboxamide] returned a Dmax greater than 80% and a DC50 of 1 to 9.9 nM.
The matching figures for `Cn1c(=O)n(C)c2c(C3CCS(=O)(=O)CC3)nc(N3CCCc4cc(-c5ccc(C(=O)NCC#Cc6ccc7occ(C8CCC(=O)NC8=O)c7c6)nc5)c(C(F)F)cc43)cc21` (centres unmarked) [Example A140, 5-(7-(difluoromethyl)-1-(4-(1,1-dioxido-tetrahydro-2H-thio-pyran-4-yl)-1,3-dimethyl-2-oxo-2,3-dihydro-1H-imidazo[4,5-c]pyridin-6-yl)-1,2,3,4-tetrahydroquinolin-6-yl)-N-(3-(3-(2,6-dioxopiperidin-3-yl)benzofuran-5-yl)prop-2-yn-1-yl)picolinamide]: 40 to 59% and 1 to 9.9 nM.
The matching figures for `Cc1cc(-c2ccc(N(C)c3cc(C(C)C)c4c(c3)n(C)c(=O)n4C)cn2)cnc1C(=O)NCC#Cc1ccc2occ(C3CCC(=O)NC3=O)c2c1` (centres unmarked) [Example A141, N-(3-(3-(2,6-dioxo-piperidin-3-yl)benzofuran-5-yl)prop-2-yn-1-yl)-5-((7-isopropyl-1,3-dimethyl-2-oxo-2,3-dihydro-1H-benzo [d]imidazol-5-yl)(methyl)amino)-5′-methyl-[2,3′-bipyridine]-6′-carboxamide]: greater than 80% and 1 to 9.9 nM.
The matching figures for `CC(C)c1cc(N2CCC(F)(F)c3cc(-c4ccc(C(=O)NCC#Cc5ccc6occ(C7CCC(=O)NC7=O)c6c5)nc4)ccc32)cc2c1n(C)c(=O)n2C` (centres unmarked) [Example A142, 5-(4,4-difluoro-1-(7-isopropyl-1,3-dimethyl-2-oxo-2,3-dihydro-1H-benzo[d]imidazol-5-yl)-1,2,3,4-tetrahydroquinolin-6-yl)-N-(3-(3-(2,6-dioxopiperidin-3-yl)benzofuran-5-yl)prop-2-yn-1-yl)picolinamide]: greater than 80% and 10 to 99 nM.
The molecule `CCn1c(=O)n(C)c2ccc(N3CCOc4nc(-c5ccc(C(=O)NCC#Cc6ccc7occ(C8CCC(=O)NC8=O)c7c6)nc5)ncc43)cc21` (centres unmarked) [Example A143, N-(3-(3-(2,6-dioxo-piperidin-3-yl)benzofuran-5-yl)prop-2-yn-1-yl)-5-(5-(3-ethyl-1-methyl-2-oxo-2,3-dihydro-1H-benzo[d]imidazol-5-yl)-6,7-dihydro-5H-pyrimido[4,5-b] [1,4]oxazin-2-yl)picolinamide] yielded a Dmax of 20 to 39% and a DC50 of 1 to 9.9 nM.
The matching figures for `Cn1c(=O)oc2cc(N3CCOc4nc(-c5ccc(C(=O)NCC#Cc6ccc7occ(C8CCC(=O)NC8=O)c7c6)nc5)ncc43)ccc21` (centres unmarked) [Example A144, N-(3-(3-(2,6-dioxo-piperidin-3-yl)benzofuran-5-yl)prop-2-yn-1-yl)-5-(5-(3-methyl-2-oxo-2,3-dihydrobenzo[d]oxazol-6-yl)-6,7-dihydro-5H-pyrimido [4,5-b][1,4]oxazin-2-yl)picolinamide]: less than 20% and greater than 1000 nM.
In the same order, the values of `Cc1cc(N2CCCc3nc(-c4ccc(C(=O)NCC#Cc5ccc6occ(C7CCC(=O)NC7=O)c6c5)nc4)ncc32)cc2c1n(C)c(=O)n2C` (centres unmarked) [Example A146, N-(3-(3-(2,6-dioxo-piperidin-3-yl)benzofuran-5-yl)prop-2-yn-1-yl)-5-(5-(1,3,7-trimethyl-2-oxo-2,3-dihydro-1H-benzo[d]imidazol-5-yl)-5,6,7,8-tetrahydropyrido [3,2-d]pyrimidin-2-yl)picolinamide] are greater than 80% and 1 to 9.9 nM.
With `Cc1cc(-c2ncc(N(C)c3cc4c(c(N5CCOCC5)n3)n(C)c(=O)n4C)cn2)cnc1C(=O)NCC#Cc1ccc2occ(C3CCC(=O)NC3=O)c2c1` (centres unmarked) [Example A147, 5-(5-((1,3-dimethyl-4-morpholino-2-oxo-2,3-dihydro-1H-imidazo[4,5-c]pyridin-6-yl)(methyl)amino)pyrimidin-2-yl)-N-(3-(3-(2,6-dioxopiperidin-3-yl)benzofuran-5-yl)prop-2-yn-1-yl)-3-methylpicolinamide], the greatest degradation seen (Dmax) is less than 20% and the DC50 was greater than 1000 nM.
The matching figures for `COc1cc(-c2cc3cccc(-c4ccc5c(c4)n(C)c(=O)n5C)c3cn2)cnc1C(=O)NCC#Cc1ccc2occ(C3CCC(=O)NC3=O)c2c1` (centres unmarked) [Example A148, 5-(8-(1,3-dimethyl-2-oxo-2,3-dihydro-1H-benzo[d]imidazol-5-yl)isoquinolin-3-yl)-N-(3-(3-(2,6-dioxo-piperidin-3-yl)benzofuran-5-yl)prop-2-yn-1-yl)-3-methoxypicolinamide]: greater than 80% and 1 to 9.9 nM.
`Cc1cc(-c2ncc(N(C)c3cc(C4CCOCC4)c4c(c3)n(C)c(=O)n4C)s2)cnc1C(=O)NCC#Cc1ccc2occ(C3CCC(=O)NC3=O)c2c1` (centres unmarked) [Example A149, 5-(5-((1,3-dimethyl-2-oxo-7-(tetrahydro-2H-pyran-4-yl)-2,3-dihydro-1H-benzo[d]imidazol-5-yl)(methyl)amino)thiazol-2-yl)-N-(3-(3-(2,6-dioxopiperidin-3-yl)benzofuran-5-yl)prop-2-yn-1-yl)-3-methylpicolinamide] gave a Dmax of less than 20% and a DC50 greater than 1000 nM.
The matching figures for `CC(C)c1cc(N2CCCc3cc(-c4ccc(C(=O)NCC#Cc5ccc6occ(C7CCC(=O)NC7=O)c6c5)nc4)c(C(F)F)cc32)cc2c1n(C)c(=O)n2C` (centres unmarked) [Example A151, 5-(7-(difluoromethyl)-1-(7-isopropyl-1,3-dimethyl-2-oxo-2,3-dihydro-1H-benzo[d]imidazol-5-yl)-1,2,3,4-tetrahydroquinolin-6-yl)-N-(3-(3-(2,6-dioxopiperidin-3-yl)benzofuran-5-yl)prop-2-yn-1-yl)picolinamide]: greater than 80% and 1 to 9.9 nM.
